Tests used:
M-07e cells = experiment: M-07e cellular assay (SCF-mediated cell proliferation); assay type: cell-based; conditions: Homo sapiens, 72 hours, CellTiter Glo
In short: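 Readout came from CellTiter Glo after 72 h of compound treatment in SCF (EC90)-stimulated, pre-starved M-07e cells at 37 °C.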

[1] = target: Recombinant human c-KIT kinase (Homo sapiens (Human), UniProt P10721); experiment: c-KIT kinase chemiluminescence assay (ADP-Glo); assay type: biochemical; conditions: ATP 50 μM
In short: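 Recombinant human c-KIT preincubated 30 min at RT in 40 mM Tris pH 7.5, 20 mM MgCl2, 0.1 mg/mL BSA, 50 μM DTT, then reacted 2 h at RT with ATP and polyEY substrate. ADP-Glo luminescence readout; activity normalized to high/low controls, IC50 and Hill coefficient from inhibitor-versus-normalized-response fit.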

Sequence of Recombinant human c-KIT kinase (P10721 26-976): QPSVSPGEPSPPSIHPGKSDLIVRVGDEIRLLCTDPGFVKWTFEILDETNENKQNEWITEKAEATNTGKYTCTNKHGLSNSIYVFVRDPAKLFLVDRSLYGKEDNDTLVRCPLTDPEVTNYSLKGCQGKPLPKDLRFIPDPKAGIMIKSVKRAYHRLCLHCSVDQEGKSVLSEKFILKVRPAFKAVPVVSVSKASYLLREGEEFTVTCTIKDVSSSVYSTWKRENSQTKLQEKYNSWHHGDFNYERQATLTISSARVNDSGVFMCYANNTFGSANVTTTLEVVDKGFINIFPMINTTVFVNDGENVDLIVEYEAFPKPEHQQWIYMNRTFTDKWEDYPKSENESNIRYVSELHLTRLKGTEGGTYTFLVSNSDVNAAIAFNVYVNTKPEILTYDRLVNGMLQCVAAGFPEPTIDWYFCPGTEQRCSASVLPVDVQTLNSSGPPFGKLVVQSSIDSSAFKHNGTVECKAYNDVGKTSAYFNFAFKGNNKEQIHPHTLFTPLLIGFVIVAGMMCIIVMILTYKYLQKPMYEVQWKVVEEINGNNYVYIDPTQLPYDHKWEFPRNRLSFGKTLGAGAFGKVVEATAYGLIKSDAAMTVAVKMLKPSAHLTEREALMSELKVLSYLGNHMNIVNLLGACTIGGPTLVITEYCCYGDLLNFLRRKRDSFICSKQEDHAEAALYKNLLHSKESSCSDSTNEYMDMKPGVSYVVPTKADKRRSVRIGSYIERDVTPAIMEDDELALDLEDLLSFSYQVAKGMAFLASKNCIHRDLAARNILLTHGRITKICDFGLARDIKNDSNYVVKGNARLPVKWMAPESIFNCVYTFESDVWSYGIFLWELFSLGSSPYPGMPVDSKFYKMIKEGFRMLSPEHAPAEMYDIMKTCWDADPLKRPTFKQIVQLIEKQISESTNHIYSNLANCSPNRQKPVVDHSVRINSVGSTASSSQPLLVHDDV

SMILES | EC50 (M-07e cells) | IC50 [1]
Cc1ccc(-c2noc([C@H]3C[C@@H](OC(F)(F)F)C3)n2)cc1NC(=O)c1cnn2ccc(N3CC4(CNC4)C3)cc12 [Example 260] | 100 to 1000 nM | < 100 nM
Cc1ccc(-c2noc([C@H]3C[C@@H]3F)n2)nc1NC(=O)c1cnn2ccc(N3CC4(COC4)C3)cc12 [Example 261] | 100 to 1000 nM | 100 to 1000 nM
O=C(Nc1cc(-c2noc([C@H]3C[C@@H]3F)n2)ccc1Cl)c1cnn2ccc(N3CC4(COC4)C3)cc12 [Example 262] | < 100 nM | < 100 nM
Cc1ccc(-c2noc([C@H]3C[C@@H](OC(F)(F)F)C3)n2)cc1NC(=O)c1cnn2cc(-c3cn(C(F)F)nn3)ccc12 [Example 263] | < 100 nM | < 100 nM
O=C(Nc1cc(-c2noc([C@H]3C[C@@H](OC(F)(F)F)C3)n2)ccc1Cl)c1cnn2ccc(N3CC4(COC4)C3)cc12 [Example 264] | < 100 nM | < 100 nM
O=C(Nc1cc(-c2noc([C@H]3C[C@@H](OC(F)F)C3)n2)ccc1Cl)c1cnn2ccc(N3CC4(COC4)C3)cc12 [Example 265] | < 100 nM | < 100 nM
Cc1ccc(-c2noc([C@H]3C[C@@H](OC(F)F)C3)n2)nc1NC(=O)c1cnn2ccc(N3CC4(COC4)C3)cc12 [Example 266] | 100 to 1000 nM | 100 to 1000 nM
Cc1ccc(-c2noc([C@H]3C[C@@H](OC(F)(F)F)C3)n2)nc1NC(=O)c1cnn2ccc(N3CC4(COC4)C3)cc12 [Example 267] | 100 to 1000 nM | 100 to 1000 nM
Cc1ncc(-c2noc([C@H]3C[C@@H]3F)n2)cc1NC(=O)c1cnn2ccc(N3CC4(COC4)C3)cc12 [Example 268] | 100 to 1000 nM | 100 to 1000 nM
Cc1ncc(-c2noc([C@H]3C[C@@H](OC(F)F)C3)n2)cc1NC(=O)c1cnn2ccc(N3CC4(COC4)C3)cc12 [Example 269] | < 100 nM | 100 to 1000 nM
Cc1ncc(-c2noc([C@H]3C[C@@H](OC(F)(F)F)C3)n2)cc1NC(=O)c1cnn2ccc(N3CC4(COC4)C3)cc12 [Example 270] | < 100 nM | 100 to 1000 nM
Cc1ccc(-c2noc(C34CC(OC(F)F)(C3)C4)n2)cc1NC(=O)c1cnn2ccc(N3CC4(COC4)C3)cc12 [Example 271] | < 100 nM | < 100 nM
COC12CC(c3nc(-c4ccc(C)c(NC(=O)c5cnn6ccc(N7CC8(COC8)C7)cc56)c4)no3)(C1)C2 [Example 272] | < 100 nM | < 100 nM
CO[C@H]1C[C@@H](c2nc(-c3ccc(C)c(NC(=O)c4cnn5ccc(N6CC7(COC7)C6)cc45)c3)no2)C1 [Example 273] | < 100 nM | 100 to 1000 nM
CO[C@H]1C[C@H](c2nc(-c3ccc(C)c(NC(=O)c4cnn5ccc(N6CC7(COC7)C6)cc45)c3)no2)C1 [Example 274] | < 100 nM | 100 to 1000 nM
Cc1ccc(-c2noc([C@H]3C[C@@H](OC(F)F)C3)n2)cc1NC(=O)c1cnn2cc(-c3cn(C(F)F)nn3)ccc12 [Example 275] | < 100 nM | < 100 nM
Cc1ccc(-c2noc([C@H]3C[C@H]3C(F)F)n2)cc1NC(=O)c1cnn2ccc(N3CC4(COC4)C3)cc12 [Example 276] | < 100 nM | < 100 nM
Cc1ccc(-c2noc([C@@H]3C[C@@H]3C(F)F)n2)cc1NC(=O)c1cnn2ccc(N3CC4(COC4)C3)cc12 [Example 277] | < 100 nM | < 100 nM
Cc1ccc(-c2noc([C@H]3C[C@@H]3C(F)F)n2)cc1NC(=O)c1cnn2ccc(N3CC4(COC4)C3)cc12 [Example 278] | < 100 nM | < 100 nM
Cc1ccc(-c2noc([C@@H]3C[C@@H]4[C@H](C3)C4(F)F)n2)cc1NC(=O)c1cnn2ccc(N3CC4(COC4)C3)cc12 [Example 279] | < 100 nM | < 100 nM
Cc1ccc(-c2noc([C@H]3C[C@@H]4[C@H](C3)C4(F)F)n2)cc1NC(=O)c1cnn2ccc(N3CC4(COC4)C3)cc12 [Example 280] | < 100 nM | < 100 nM
Cc1ccc(-c2noc([C@@H]3C[C@H]3C(F)F)n2)cc1NC(=O)c1cnn2ccc(N3CC4(COC4)C3)cc12 [Example 281-1] | < 100 nM | < 100 nM
Cc1ccc(-c2noc(C3CC4(C3)CC(F)(F)C4)n2)cc1NC(=O)c1cnn2ccc(N3CC4(COC4)C3)cc12 [Example 281-2] | < 100 nM | < 100 nM
[2H]C([2H])([2H])c1ccc(-c2noc([C@H]3C[C@@H]3F)n2)cc1NC(=O)c1cnn2ccc(N3CC4(COC4)C3)cc12 [Example 281-3] | < 100 nM | < 100 nM
[2H]C([2H])([2H])c1ccc(-c2noc([C@H]3C[C@@H](OC(F)F)C3)n2)cc1NC(=O)c1cnn2ccc(N3CC4(COC4)C3)cc12 [Example 281-4] | < 100 nM | < 100 nM

SMILES | EC50 (M-07e cells) | IC50 [1]
[2H]C([2H])([2H])c1ccc(-c2noc([C@H]3C[C@@H]3C(F)F)n2)cc1NC(=O)c1cnn2ccc(N3CC4(COC4)C3)cc12 [Example 281-5] | < 100 nM | < 100 nM
Cc1ccc(-c2noc(C34COC(C)(C3)C4)n2)cc1NC(=O)c1cnn2ccc(N3CC4(COC4)C3)cc12 [Example 281-6] | < 100 nM | 100 to 1000 nM
Cc1ccc(-c2noc([C@H]3CC3(F)F)n2)cc1NC(=O)c1cnn2ccc(N3CC4(COC4)C3)cc12 [Example 281-7] | < 100 nM | 100 to 1000 nM
Cc1ccc(-c2noc(C3CN(CC(F)(F)F)C3)n2)cc1NC(=O)c1cnn2ccc(N3CC4(COC4)C3)cc12 [Example 281-8] | < 100 nM | < 100 nM
Cc1ncc(-c2noc([C@H]3CN(CC(F)(F)F)[C@@H]3C)n2)cc1NC(=O)c1cnn2ccc(N3CC4(C3)CC(O)(C(F)F)C4)cc12 [Example 281-9] | 100 to 1000 nM | 100 to 1000 nM
Cc1ncc(-c2noc([C@H]3CN(C(=O)C(C)(F)F)[C@@H]3C)n2)cc1NC(=O)c1cnn2ccc(N3CC4(C3)CC(O)(C(F)F)C4)cc12 [Example 281-10] | 100 to 1000 nM | 100 to 1000 nM
Cc1ncc(-c2noc([C@@H]3CN(C(=O)C4(F)CC4)[C@H]3C)n2)cc1NC(=O)c1cnn2ccc(N3CC4(C3)CC(O)(C(F)F)C4)cc12 [Example 281-11] | 100 to 1000 nM | 100 to 1000 nM
Cc1ncc(-c2noc([C@@H]3CN(CC(F)(F)F)[C@H]3C)n2)cc1NC(=O)c1cnn2ccc(N3CC4(C3)CC(O)(C(F)F)C4)cc12 [Example 281-12] | 100 to 1000 nM | < 100 nM
Cc1ncc(-c2noc([C@@H]3CN(C(=O)C(C)(F)F)[C@H]3C)n2)cc1NC(=O)c1cnn2ccc(N3CC4(C3)CC(O)(C(F)F)C4)cc12 [Example 281-13] | 100 to 1000 nM | 100 to 1000 nM
COC(=O)N1C[C@H](c2nc(-c3cnc(C)c(NC(=O)c4cnn5ccc(N6CC7(C6)CC(O)(C(F)F)C7)cc45)c3)no2)[C@H]1C [Example 281-14] | 100 to 1000 nM | 100 to 1000 nM
Cc1ncc(-c2noc([C@H]3CN(C(=O)C4(F)CC4)[C@@H]3C)n2)cc1NC(=O)c1cnn2ccc(N3CC4(C3)CC(O)(C(F)F)C4)cc12 [Example 281-15] | 100 to 1000 nM | 100 to 1000 nM
Cc1ncc(-c2noc([C@H]3CC34CC4)n2)cc1NC(=O)c1cnn2ccc(N3CC4(C3)CC(O)(C(F)F)C4)cc12 [Example 281-16] | < 100 nM | < 100 nM
COC(=O)N1C[C@@H](c2nc(-c3cnc(C)c(NC(=O)c4cnn5ccc(N6CC7(C6)CC(O)(C(F)F)C7)cc45)c3)no2)[C@@H]1C [Example 281-17] | < 100 nM | 100 to 1000 nM
Cc1cc(F)c(-c2noc([C@H]3C[C@@H]3F)n2)cc1NC(=O)c1cnn2ccc(N3CC4(C3)CC(O)(C(F)F)C4)cc12 [Example 281-18] | < 100 nM | < 100 nM
CC(=O)N1CC(c2nc(-c3ccc(C)c(NC(=O)c4cnn5ccc(N6CC7(COC7)C6)cc45)c3)no2)C1 [Example 281-19] | > 1000 nM | 100 to 1000 nM
Cc1ccc(-c2noc([C@H]3C[C@@H](OC(F)F)C3)n2)cc1NC(=O)c1cnn2ccc(N3CC4(C3)CC(O)(C(F)F)C4)cc12 [Example 281-20] | < 100 nM | < 100 nM
Cc1ccc(-c2noc([C@H]3C[C@@H](OC(F)(F)F)C3)n2)cc1NC(=O)c1cnn2ccc(N3CC4(C3)CC(O)(C(F)F)C4)cc12 [Example 281-21] | < 100 nM | < 100 nM
Cc1ccc(-c2noc([C@H]3C[C@@H](OC(F)F)C3)n2)cc1NC(=O)c1cnn2ccc(N3CC4(C3)CC(O)(C(F)(F)F)C4)cc12 [Example 281-22] | < 100 nM | < 100 nM
Cc1ccc(-c2noc([C@H]3C[C@@H](OC(F)(F)F)C3)n2)cc1NC(=O)c1cnn2ccc(N3CC4(C3)CC(O)(C(F)(F)F)C4)cc12 [Example 281-23] | < 100 nM | < 100 nM
Cc1cc(F)c(-c2noc([C@H]3C[C@@H]3F)n2)cc1NC(=O)c1cnn2ccc(N3CC4(C3)CN(S(C)(=O)=O)C4)cc12 [Example 281-24] | 100 to 1000 nM | < 100 nM
Cc1ccc(-c2noc([C@H]3C[C@@H](C(F)(F)F)C3)n2)cc1NC(=O)c1cnn2ccc(N3CC4(COC4)C3)cc12 [Example 281-25] | < 100 nM | < 100 nM
O=C(Nc1cc(-c2noc([C@H]3C[C@@H]3F)n2)ccc1Cl)c1cnn2ccc(N3CC4(C3)CC(O)(C(F)F)C4)cc12 [Example 281-26] | < 100 nM | 100 to 1000 nM
O=C(Nc1cc(-c2noc([C@H]3C[C@@H](C(F)(F)F)C3)n2)ccc1Cl)c1cnn2ccc(N3CC4(C3)CC(O)(C(F)F)C4)cc12 [Example 281-27] | < 100 nM | < 100 nM
O=C(Nc1cc(-c2noc([C@H]3C[C@@H](OC(F)(F)F)C3)n2)ccc1Cl)c1cnn2ccc(N3CC4(C3)CC(O)(C(F)F)C4)cc12 [Example 281-28] | < 100 nM | < 100 nM
